Earlier results on one molecule are cited in patent EP3027215B1, “POWDER FORMULATION OF VALGANCICLOVIR” (Ali Raif Ilaç Sanayi ve Ticaret Anonim Sirketi, priority 2013, dated 2015).

The structures appear in SMILES notation.

For data set [1] the following is noted: solid form, stored under room temperature conditions.
For data set [2] the following is noted: at pH 7.0.

As for `CC(C)[C@H](N)C(=O)OCC(CO)OCn1cnc2c(=O)[nH]c(N)nc21.Cl` (stereo partly drawn) [Valganciclovir hydrochloride, L-Valine, 2-[(2-amino-1,6-dihydro-6-oxo-9H-purin-9-yl)methoxy]-3-hydroxypropyl ester, monohydrochloride], the “physical, chemical, and light stability” value in data set [1] is recorded as “acceptable”. In addition, in data set [2], the n-octanol-water partition coefficient is 0.0095.
